{
  "source": "paper PMC7544826",
  "about": "(Communications Biology, 2020)",
  "origin": "cited, not measured here",
  "system": "Notum",
  "set-up": "method as in PMID 31876313",
  "conditions": "read-out: IC50, Notum inhibition (reported potency); cited from earlier work",
  "data": [
    {"smiles": "COc1ccc2[nH]cc(CCNC(C)=O)c2c1", "note": "[melatonin]", "values": [
      {"measurement": "IC50", "value": 75, "unit": "µM"}
    ]}
  ]
}
